Entries after “also recorded” stand apart in the source; their conditions may differ. Structures can show the parent of a compound that is named as a salt.
How the values were obtained:
[1] = biological target: T1, isolated tracheal spirals of the guinea pig (Cavia porcellus, UniProt H0W1Z3); assay: anticholinergic effectiveness on isolated tracheal spirals (antagonism against acetyl-β-methylcholine chloride); conditions: for antagonism against acetyl-β-methylcholine chloride / anticholinergic effectiveness (in words): isolated guinea pig tracheal spirals
T1 construct: the whole of the trachea is roughly freed beginning from the larynx up to the tracheal bifurcation, removed and transferred; from tissue; host or cells: isolated trachea (spiral strips) of male Pirbright white guinea pigs
Text: A model for this is the measurement of the anticholinergic effectiveness on isolated tracheal spirals of the guinea pig.
The test substance used was 3α-benziloyloxynortropane-8-spiro-1'-pyrrolidinium chloride (trospium chloride; MP 194), ipratropium bromide being used as comparison substance.
There is to be determined the anticholinergic effectiveness of MP 194 in comparison with the reference substance ipratropium bromide on the isolated tracheal spirals of the guinea pig.
3.1.1. animal species: guinea pig
3.1.2. animal strain: Pirbright white
3.3.1. test substance (test antagonist) trospium chloride (MP 194) (M.W. 428)
3.3.2. reference substance (reference antagonist) ipratropium bromide (Atrovent) (M.W. 412.4)
3.3.3.1. acetyl-β-methylcholine chloride (Sigma) (M.W. 195.7)
The guinea pig is stunned by a blow on the neck. Subsequently, the whole of the trachea is roughly freed beginning from the larynx up to the tracheal bifurcation, removed and transferred to tempered (37° C.) and carbogenized tyrode solution. After surrounding connective tissue has been removed as far as possible, the preparation is cut up spirally by means of fine scissors at an angle of about 45° and separated into two equal sized sections. After weighing, both preparations are provided proximally and distally with a silk thread. One thread serves for fixing the preparation by means of a loop to the bottom of the bath and the other is connected via a hook with the transducer above the bath vessel.
Subsequently, the preparations, corresponding to the calibration, are prestressed with about 80 mN and equilibrated from 50-100 minutes. During the equilibration phase, the nutrient solution in the bath vessels is renewed in 15 minute intervals. As soon as the resting muscle tonus of the preparation has stabilized, there takes place the cumulative addition of the agonist, whereby the addition of the next highest concentration first takes place when no further increase of contraction is recognisable (plateau). When the maximum contraction height of the preparation is achieved, the cumulative agonist addition is ended and the preparation is rinsed. After a further equilibration phase (v. supra), the cumulative addition of the agonist is repeated but this time in the presence of the test or reference antagonist.
3.6.1. The perfusion part consists of an L-shaped organ bath in the hollow space of which (longer limb) runs a double glass spiral through which the nutrient solution is passed into the actual bath vessel (28 ml. content; shorter limb). This bath vessel is divided into two chambers which are, however, connected together by two transverse connections. […] The inlet chambers as well as the feeding glass spirals are tempered from the outside to 37° C. by a separate liquid circulation. This tempering takes place with the help of a "Colora" ultra-thermostat type K (Colora Messtechnik GmbH, Dusseldorf, Germany) which serves as thermostat and pump. In order, in case of need, always to have available ready-for-use nutrient solution, above the organ bath is provided a double-walled storage container in which the nutrient solution is also tempered and carbogenised. This is connected via a glass stopcock and a polypropylene tube with double glass spiral in the interior of the organ bath.
3.6.2. The measurement and recording part includes a transducer (Statham-Universal-Zelle UC-2; Hugo Sachs Elektronic KG, Hugstetten, Germany). By means of a hanging-in weight, a force of 40 mN is produced on the transducer which passes as electrical signal via a connecting cable to a bridge amplifier. The amplification is smoothly so regulated that the force provided corresponds to a constant value on the scale or an analogous value on the millimeter paper of the recorder (dependent upon the amplification; see below). After fixing the organ, the preparation is prestressed to the doubled mark, corresponding to 80 mN. […]

[2] = test system: awake guinea pig (cholinergically-induced bronchial cramps); assay: inhalative provocation with acetyl-β-methylcholine chloride aerosol on awake guinea pigs (broncholytic/protective action); type: in vivo; conditions: for EC50: Cavia porcellus, read-out: EC50, average effective concentration w of acetyl-β-methylcholine chloride (provocation substance) after pre-treatment; for probit analysis reaction % calculated: probit regression; for probit analysis reaction % observed: animals reacting with dyspnoea
Method: animal strain: Pirbright white test substance: trospium chloride (MP 194) (M.W. 428) dosage: 3×10^-7 mole ml^-1 kg^-1 mode of administration: intraperitoneally test substance: dehydrotrospium chloride (WG 71) (M.W. 426) […]
reference substance: atropine hydrochloride (Serva; M.W. 325.8) […]
reference substance: isoproterenol (Fluka; M.W. 247.72) dosage: […]
further substances: acetyl-β-methylcholine chloride (Sigma; M.W. 195.7) mode of administration: 0.5 ml. min^-1 by inhalation.
The guinea pigs intended for an experiment are, after an acclimatization time of at least 8 days, subjected twice to an aerosol of 0.1% acetyl-β-methylcholine chloride solution since, as is known from experience, during the first two inhalative provocations, the animals react with more distinct respiratory disturbances than in the case of the subsequent provocations (adaptation). If, in the case of the two inhalation phases, a nonsensitivity (absence of respiratory disturbances) is observed towards the exposure, these animals are excluded from the actual experiment.
For the purpose of aerosol provocation, the guinea pigs are placed individually in an inhalation chamber (see Section 3.6 hereinafter) in which 0.5 ml. of solution per minute are atomized as droplet aerosol by means of a special nozzle (Rhema, Hofheim, Germany). […] With the help of a stopwatch, there is recorded the time from the commencement of inhalation to the appearance of the asphyctic state; the animals are immediately removed from the inhalation chamber and, as a rule, recover in a very short period of time (recovery of consciousness and normalization of breathing). If, within 180 seconds, no dysponea occurs, the inhalation is discontinued.
One aerosol concentration is tested per test day; the time between the individual aerosol provocations is at least 1 week.
The inhalation chamber is a Plexiglass container specially made for this purpose, the lid of which can be closed in an air-tight manner by means of rubber sealing and grip closure means. The internal measurements of the chamber are 285×190×180 mm., which corresponds to a volume of about 9.75 liters. The special nozzle (Rhema, Hofheim, Germany, order No. 504104) is fixed to a recess on the lid and ensures a uniform supply of the available chamber space with the aerosol. The provocation solution is supplied to the nozzle via an infusion pump (Braun, Melsungen, Germany) (0.5 ml./minute) and there atomized with a superpressure of 180 kPa from an attached pressure gas bottle (artificial air, KW-free). For reasons of safety, the aerosol provocation is carried out under a ventilator.
The EC50, as well as the related confidence interval (p>95%), are determined from the probit regression lines of the percentage values (v. supra) provided with weight coefficients after line adaptation by the "maximum likelihood" method (10 iterations). Furthermore, there is examined the adaptation of the lines to the observed data by means of the chiquadrat test. For the evaluation, a calculation programme is commercially available (Olivetti).

[3] = pre-treatment 3×10^-7 mol ml^-1 kg^-1 i.p., 15 min before inhalation, w of acetyl-β-methylcholine chloride in atomised solution, control animals w=0.000539, higher = more protection
[4] = acetyl-β-methylcholine chloride w=0.000562, 10 tested, pre-treatment 3×10^-7 mol ml^-1 kg^-1 i.p.
[5] = acetyl-β-methylcholine chloride w=0.000562, pre-treatment 3×10^-7 mol ml^-1 kg^-1 i.p.
[6] = acetyl-β-methylcholine chloride w=0.001000, 10 tested (isoproterenol 9), pre-treatment 3×10^-7 mol ml^-1 kg^-1 i.p.
[7] = acetyl-β-methylcholine chloride w=0.001000, pre-treatment 3×10^-7 mol ml^-1 kg^-1 i.p.
[8] = acetyl-β-methylcholine chloride w=0.001780, pre-treatment 3×10^-7 mol ml^-1 kg^-1 i.p.
[9] = acetyl-β-methylcholine chloride w=0.001780, trospium chloride 10 tested, dehydrotrospium chloride 9, atropine 9, isoproterenol 8, pre-treatment 3×10^-7 mol ml^-1 kg^-1 i.p.
[10] = acetyl-β-methylcholine chloride w=0.003160, 10 tested (isoproterenol 9), pre-treatment 3×10^-7 mol ml^-1 kg^-1 i.p.
[11] = acetyl-β-methylcholine chloride w=0.003160, pre-treatment 3×10^-7 mol ml^-1 kg^-1 i.p.
[12] = acetyl-β-methylcholine chloride w=0.005620, 10 tested (isoproterenol 9), pre-treatment 3×10^-7 mol ml^-1 kg^-1 i.p.
[13] = acetyl-β-methylcholine chloride w=0.005620, pre-treatment 3×10^-7 mol ml^-1 kg^-1 i.p.

T1 sequence (H0W1Z3 1-590): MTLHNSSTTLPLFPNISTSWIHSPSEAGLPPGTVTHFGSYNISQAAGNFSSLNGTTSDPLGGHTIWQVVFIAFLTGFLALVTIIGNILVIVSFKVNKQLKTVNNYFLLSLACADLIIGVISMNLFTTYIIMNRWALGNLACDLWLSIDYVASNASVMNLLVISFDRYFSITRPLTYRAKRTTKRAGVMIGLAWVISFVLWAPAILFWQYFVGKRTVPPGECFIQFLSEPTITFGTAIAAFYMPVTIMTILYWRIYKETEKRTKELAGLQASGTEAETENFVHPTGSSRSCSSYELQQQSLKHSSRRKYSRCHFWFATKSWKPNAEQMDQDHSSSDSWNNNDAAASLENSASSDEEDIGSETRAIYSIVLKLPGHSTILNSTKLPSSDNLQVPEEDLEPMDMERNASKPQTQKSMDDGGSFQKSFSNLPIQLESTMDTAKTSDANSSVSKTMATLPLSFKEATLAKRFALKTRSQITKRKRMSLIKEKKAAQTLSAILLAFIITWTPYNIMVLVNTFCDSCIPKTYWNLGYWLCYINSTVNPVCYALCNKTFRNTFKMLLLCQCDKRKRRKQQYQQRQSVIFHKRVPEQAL

SMILES	EC50 [2, 3] [µg/mL]	number of animals reacting [2, 4]	probit analysis reaction % calculated [2, 5] [%]	number of animals reacting [2, 6]	probit analysis reaction % observed [2, 7] [%]	probit analysis reaction % calculated [2, 7] [%]	probit analysis reaction % observed [2, 8] [%]	probit analysis reaction % calculated [2, 8] [%]	number of animals reacting [2, 9]	number of animals reacting [2, 10]	probit analysis reaction % observed [2, 11] [%]	probit analysis reaction % calculated [2, 11] [%]	number of animals reacting [2, 12]	probit analysis reaction % observed [2, 13] [%]	probit analysis reaction % calculated [2, 13] [%]	also measured
O=C(O[C@H]1C[C@H]2CC[C@@H](C1)[N+]21CCCC1)C(O)(c1ccccc1)c1ccccc1 [trospium chloride, 3α-benziloyloxynortropane-8-spiro-1'-pyrrolidinium chloride]	2860	0	5.46	1	10.00	15.03	50.00	32.00	5	5	50.00	53.87	7	70.00	74.66	Kb ([1]; antagonism against acetyl-β-methylcholine chloride, read-out: pA2 ± s (converted)): 550 pM; quality of the antagonism (in words) ([1]; comparison of maximum effects in absence and presence of the antagonist, listed as MP 194): competitively antagonistically effective; also recorded: competitive antagonism; strength of activity compared with ipratropium bromide (in words) ([1]; comparison of pA2 values, t-test, listed as MP 194): equivalent to the reference substance ipratropium bromide; also recorded: does not differ significantly; also recorded: equal to the reference substance ipratropium bromide; antagonism against acetyl-β-methylcholine chloride / anticholinergic effectiveness (in words) ([1]; listed as MP 194): comparable, dosage-dependent antagonism; also recorded: clear anticholinergic effectiveness; broncholytic effectiveness compared with atropine and isoproterenol (in words) ([2]; 15 min after i.p. administration, equimolar dosages): comparable with or superior to the well known parasympatholytics atropine and the β-sympathomimetic isoproterenol; also recorded: greater effectiveness of the test substances, especially of trospium chloride, in comparison with the reference substances; probit analysis reaction % observed, correction according to Bliss ([2]; guinea pig, in vivo): 2.50; broncholytic effect (in words) ([2]; intraperitoneal, cholinergically-induced bronchial cramps, awake guinea pig): outstanding broncholytic effect
CN1[C@@H]2CC[C@H]1C[C@@H](OC(=O)C(CO)c1ccccc1)C2 (stereo partly shown) [atropine chloride, atropine hydrochloride, reference compound]	1380	3	38.93	6	60.00	45.98	55.56	53.16	5	5	50.00	60.20	7	70.00	66.95	antagonism against acetyl-β-methylcholine chloride / anticholinergic effectiveness (in words) [1]: dosage dependent antagonism; probit analysis reaction % observed [2, 5]: 30.00%; EC50, average effective concentration w of acetyl-β-methylcholine chloride (provocation substance) after pre-treatment [2, 3]: 0.00138
